# Measured values published in patent US6737383B1, “Herbicidal oxadiazolidines” (priority 1999, dated 2004).
# Columns and labels:
# blackgrass = assay: Test B pre/postemergence blackgrass; assay type: in vivo, Alopecurus myosuroides
# Procedure, shortened: (§1)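 Response is a visual 0-to-10 score relative to untreated plants, where 0 means no effect and 10 means complete control, taken twelve to sixteen days after application. Treatments went onto soil at planting and onto foliage of 1- to 4-leaf plants, using a surfactant-containing non-phytotoxic solvent.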
# surinam grass = assay: Test B pre/postemergence surinam grass; assay type: in vivo, Brachiaria decumbens
# Procedure, shortened: as §1
# sugar beet = assay: Test B pre/postemergence sugar beet; assay type: in vivo, Beta vulgaris
# Procedure, shortened: as §1
# bamyardgrass = assay: Test B flood test barnyardgrass; assay type: in vivo, Echinochloa crus-galli
# Procedure, shortened: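 Plants were grown to the 2-leaf stage before treatment with test chemical, then held in a greenhouse for twelve to sixteen days. Injury was visually rated against untreated controls on a 0–10 scale, where 0 is no effect and 10 is complete control.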
# [1] = Preemergence, Rate 62 g/ha, scale of 0 to 10 where 0 is no effect and 10 is complete control
# [2] = Preemergence, Rate 250 g/ha, scale of 0 to 10 where 0 is no effect and 10 is complete control
# [3] = Preemergence, Rate 500 g/ha, scale of 0 to 10 where 0 is no effect and 10 is complete control
# [4] = Rate 62 g/ha, Postemergence, scale 0 to 10 (0 no effect, 10 complete control)
# [5] = Rate 125 g/ha, Postemergence, scale of 0 to 10 where 0 is no effect and 10 is complete control
# [6] = Rate 250 g/ha, Postemergence, scale of 0 to 10 where 0 is no effect and 10 is complete control
# [7] = Rate 500 g/ha, Postemergence, scale 0 to 10, 0 no effect, 10 complete control
# [8] = Rate 62 g/ha, headed Pre-emergence (flood test species), scale 0 to 10 (0 no effect, 10 complete control)
# [9] = Rate 125 g/ha, Pre-emergence, flood test species, scale 0 to 10 where 0 is no effect and 10 is complete control
# [10] = Rate 250 g/ha, Pre-emergence, flood-test species, scale 0 to 10, 0 is no effect, 10 is complete control
# [11] = Rate 500 g/ha, Pre-emergence, flood test species, scale 0 to 10 (0 no effect, 10 complete control)
# [12] = Postemergence, Rate 125 g/ha, scale 0 to 10, 0 is no effect, 10 is complete control
Structure (SMILES),Blackgrass plant response rating (blackgrass; [1]),"Blackgrass plant response rating (0 to 10 scale) (blackgrass; Preemergence, Rate 125 g/ha)",Blackgrass plant response rating (blackgrass; [2]),Blackgrass plant response rating (blackgrass; [3]),Blackgrass plant response rating (blackgrass; [4]),"Plant response rating, Blackgrass (blackgrass; [6])",B. signalgrass plant response rating (surinam grass; [1]),"B. signalgrass plant response rating (0 to 10 scale, 0 is no effect, 10 is complete control) (surinam grass; Preemergence, Rate 125 g/ha)",B. signalgrass plant response rating (surinam grass; [2]),B. signalgrass plant response rating (surinam grass; [3]),B. signalgrass plant response rating (surinam grass; [4]),"Plant response rating, B. signalgrass (surinam grass; [6])",Sugarbeets plant response rating (sugar beet; [1]),"Sugarbeets plant response rating (0 to 10 scale) (sugar beet; Preemergence, Rate 125 g/ha)",Sugarbeets plant response rating (sugar beet; [2]),Sugarbeets plant response rating (sugar beet; [3]),Sugarbeets plant response rating (sugar beet; [4]),"Plant response rating, Sugarbeets (sugar beet; [6])",Barnyardgrass plant response rating (bamyardgrass; [8]),Barnyardgrass plant response rating (bamyardgrass; [9]),further results
CC(C)N(C(=O)n1oc(=O)n(Cc2nnsc2Cl)c1=O)c1ccc(F)cc1F [Compound 320],0,2,5,6,0,0,0,1,2,3,0,0,0,0,0,0,0,2,0,0,Blackgrass plant response rating (blackgrass; [5]): 0; Blackgrass plant response rating (blackgrass; [7]): 0; B. signalgrass plant response rating (surinam grass; [5]): 0; B. signalgrass plant response rating (surinam grass; [7]): 0; Sugarbeets plant response rating (sugar beet; [5]): 2; Barnyardgrass plant response rating (bamyardgrass; [10]): 0; Barnyardgrass plant response rating (bamyardgrass; [11]): 0
CC(C)N(C(=O)n1oc(=O)n(C2CC3CCC2C3)c1=O)c1ccc(F)cc1 (stereo not shown) [Compound 327],0,0,4,7,0,3,0,0,1,7,0,0,0,0,0,3,0,0,0,0,"Plant response rating, Blackgrass (blackgrass; [12]): 0; Plant response rating, Blackgrass (blackgrass; [7]): 7; Plant response rating, B. signalgrass (surinam grass; [12]): 0; Plant response rating, B. signalgrass (surinam grass; [7]): 0; Plant response rating, Sugarbeets (sugar beet; [12]): 0; Plant response rating, Sugarbeets (sugar beet; [7]): 0; Barnyardgrass plant response rating (bamyardgrass; [10]): 3; Barnyardgrass plant response rating (bamyardgrass; [11]): 0"
